Test results taken from US6534491B2, “Preparation and use of ortho-sulfonamido bicyclic heteroaryl hydroxamic acids as matrix metalloproteinase and tace inhibitors” (priority 1996, dated 2003).
Where a name gives a salt, the structure may show the parent alone. Read-outs that look alike come from different tables or passages of the source.

Legend:
[1] = target: T1, MMP-1 (Homo sapiens, UniProt P03956); experiment: biochemical; conditions: for inhibition at 1 µM: read-out: MMP-1 % inhibition; for IC50: MMP-1 IC50
T1 sequence (P03956 100-469): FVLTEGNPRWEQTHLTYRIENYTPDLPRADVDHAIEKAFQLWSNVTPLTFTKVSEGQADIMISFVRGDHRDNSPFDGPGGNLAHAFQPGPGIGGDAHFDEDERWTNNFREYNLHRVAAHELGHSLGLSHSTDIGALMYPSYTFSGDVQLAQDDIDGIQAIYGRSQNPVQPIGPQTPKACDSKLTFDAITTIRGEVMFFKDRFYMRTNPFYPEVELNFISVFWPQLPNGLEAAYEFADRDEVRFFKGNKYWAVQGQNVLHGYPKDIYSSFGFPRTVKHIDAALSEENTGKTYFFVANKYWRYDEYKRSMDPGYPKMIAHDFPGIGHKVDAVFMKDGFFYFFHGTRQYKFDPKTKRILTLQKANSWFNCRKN

[2] = target: MMP-13 (Homo sapiens, UniProt P45452); experiment: MMP-13 inhibition (thiopeptide or fluorescent peptide substrate); format: biochemical; conditions: for inhibition at 1 µM: read-out: MMP-13 % inhibition, at 1 μM concentration
Description: (§1) The enzyme activity is measured by the rate of the color increase. The thiopeptide substrate is made up fresh as a 20 mM stock in 100% DMSO and the DTNB is dissolved in 100% DMSO as a 100 mM stock and stored in the dark at room temperature. Both the substrate and DTNB are diluted together to 1 mM with substrate buffer (50 mM HEPES pH 7.5, 5 mM CaCl2) before use. The stock of enzyme is diluted with buffer (50 mM HEPES, pH 7.5, 5 mM CaCl2, 0.02% Brij) to the desired final concentration.
(§2) Alternatively, a fluorescent peptide substrate is used. In this test procedure, the peptide substrate contains a fluorescent group and a quenching group. Upon cleavage of the substrate by an MMP, the fluorescence that is generated is quantitated on the fluorescence plate reader. The assay is run in HCBC assay buffer (50 mM HEPES, pH 7.0, 5 mM Ca^+2, 0.02% Brij, 0.5% Cysteine), with human recombinant MMP-1, MMP-9, or MMP-13. The substrate is dissolved in methanol and stored frozen in 1 mM aliquots. For the assay, substrate and enzymes are diluted in HCBC buffer to the desired concentrations. Compounds are added to the 96 well plate containing enzyme and the reaction is started by the addition of substrate.
(§3) For either the thiopeptide or fluorescent peptide test procedures, the slope of the line is calculated and represents the reaction rate. The linearity of the reaction rate is confirmed (r^2>0.85). The mean (x±sem) of the control rate is calculated and compared for statistical significance (p<0.05) with drug-treated rates using Dunnett's multiple comparison test.

[3] = target: MMP-9 (Homo sapiens, UniProt P14780); experiment: MMP-9 inhibition (thiopeptide or fluorescent peptide substrate); format: biochemical; conditions: for inhibition at 1 µM: read-out: MMP-9 % inhibition, at 1 μM concentration
Sequence of MMP-9 (P14780 94-707): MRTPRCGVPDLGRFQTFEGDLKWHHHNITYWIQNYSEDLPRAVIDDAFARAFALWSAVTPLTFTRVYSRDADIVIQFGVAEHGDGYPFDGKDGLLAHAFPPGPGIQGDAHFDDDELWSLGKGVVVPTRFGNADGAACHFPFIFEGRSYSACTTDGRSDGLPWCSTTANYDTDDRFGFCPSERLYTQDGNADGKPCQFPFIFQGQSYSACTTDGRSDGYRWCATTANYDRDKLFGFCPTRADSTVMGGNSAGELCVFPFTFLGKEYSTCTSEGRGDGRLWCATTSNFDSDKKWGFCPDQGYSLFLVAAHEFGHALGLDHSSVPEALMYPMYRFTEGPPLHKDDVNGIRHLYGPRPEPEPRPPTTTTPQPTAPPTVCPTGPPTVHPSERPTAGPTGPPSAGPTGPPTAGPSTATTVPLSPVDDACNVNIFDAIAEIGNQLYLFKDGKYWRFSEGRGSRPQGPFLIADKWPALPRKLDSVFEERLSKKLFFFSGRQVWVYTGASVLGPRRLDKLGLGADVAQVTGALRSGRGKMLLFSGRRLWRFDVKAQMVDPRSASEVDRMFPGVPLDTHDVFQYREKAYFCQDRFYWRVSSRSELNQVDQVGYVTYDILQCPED
Description: as §1, §2, §3

[4] = target: TACE (Homo sapiens, UniProt P78536); experiment: TACE inhibition (fluorescent peptidyl substrate); format: biochemical; conditions: for inhibition at 1 µM: read-out: TACE % inhibition
Sequence of TACE (P78536 215-824): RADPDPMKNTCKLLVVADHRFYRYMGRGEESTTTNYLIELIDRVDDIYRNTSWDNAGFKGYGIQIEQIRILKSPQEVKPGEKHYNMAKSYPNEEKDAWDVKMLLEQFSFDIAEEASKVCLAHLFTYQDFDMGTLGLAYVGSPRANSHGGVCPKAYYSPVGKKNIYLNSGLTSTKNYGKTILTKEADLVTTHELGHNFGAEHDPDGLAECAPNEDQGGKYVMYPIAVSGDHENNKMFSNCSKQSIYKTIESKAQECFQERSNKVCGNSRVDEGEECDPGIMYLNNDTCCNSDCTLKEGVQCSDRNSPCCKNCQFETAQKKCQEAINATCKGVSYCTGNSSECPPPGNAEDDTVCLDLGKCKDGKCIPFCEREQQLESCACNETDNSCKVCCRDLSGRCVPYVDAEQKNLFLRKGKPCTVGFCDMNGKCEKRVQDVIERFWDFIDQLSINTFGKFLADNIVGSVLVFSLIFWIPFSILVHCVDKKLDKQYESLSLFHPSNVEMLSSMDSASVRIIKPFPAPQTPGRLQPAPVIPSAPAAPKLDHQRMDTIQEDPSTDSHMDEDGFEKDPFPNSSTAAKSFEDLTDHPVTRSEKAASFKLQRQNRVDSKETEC
Description: Using 96-well black microtiter plates, each well receives a solution composed of 10 μL TACE (final concentration 1 μg/mL), 70 μL Tris buffer, pH 7.4 containing 10% glycerol (final concentration 10 mM), and 10 μL of test compound solution in DMSO (final concentration 1 μl M, DMSO concentration <1%) and incubated for 10 minutes at room temperature.
The reaction is read (excitation 340 nm, emission 420 nm) for 10 min. and the increase in fluorescence over time is plotted as a linear line. The slope of the line is calculated and represents the reaction rate.
The linearity of the reaction rate is confirmed (r^2>0.85). The mean (x±sem) of the control rate is calculated and compared for statistical significance (p<0.05) with drug-treated rates using Dunnett's multiple comparison test.

Q: What does the source list for `CCCCCCCCS(=O)(=O)N(Cc1cccnc1)c1c(C(=O)NO)cnc2cc(C(F)(F)F)ccc12` [Example 43, 4-[(Octane-1-sulfonyl)-pyridin-3-ylmethyl-amino]-7-trifluoromethyl-quinoline-3-carboxylic acid hydroxyamide]?
A: inhibition at 1 µM [1]: 43%; inhibition at 1 µM [2]: 63%; inhibition at 1 µM [3]: 71%; inhibition at 1 µM ([4]; at 1 μM concentration): 20%

Q: Which IC50 [1] does the source give for `COc1ccc(S(=O)(=O)N(Cc2ccccc2)c2c(C(=O)NO)cnc3c2cnn3-c2ccccc2)cc1` [Example 62, 4-[Benzyl-(4-methoxybenzenesulfonyl)amino]-1-phenyl-1H-pyrazolo[3,4-b]pyridine-5-carboxylic acid, hydroxyamide] here?
A: 1.24 µM

Q: What about the IC50 [2] of the same compound?
A: 0.023 µM

Q: What about the IC50 ([3]; read-out: MMP-9 IC50) of the same compound?
A: 0.0057 µM

Q: And the inhibition at 1 µM ([4]; at 1 μM concentration)?
A: 46%

Q: How did the IC50 [1] turn out when `COc1ccc(S(=O)(=O)N(Cc2ccccc2)c2c(C(=O)NO)cnc3ccc([N+](=O)[O-])cc23)cc1` [Example 30, 4-[Benzyl-(4-methoxy-benzenesulfonyl)-amino]-6-nitro-quinoline-3-carboxylic acid hydroxyamide] was run?
A: 0.022 µM

Q: What about the IC50 [2] of the same compound?
A: 0.467 µM

Q: What about the IC50 ([3]; read-out: MMP-9 IC50) of the same compound?
A: 0.011 µM

Q: And the IC50 [4]?
A: 0.047 µM

Q: Which results are given for `Cc1nn(C)c2ncc(C(=O)NO)c(N(C)S(=O)(=O)c3ccc(Oc4ccncc4)cc3)c12` [91(HC1), 4-{Methyl-[4-(4-pyridinyloxy)benzenesulfonyl]amino}-1,3-dimethyl-1H-pyrazolo[3,4-b]pyridine-5-carboxylic Acid, Hydroxyamide]?
A: IC50 ([3]; MMP-9 IC50): 0.0018 µM; inhibition at 1 µM [4]: 38.7%

Q: Which results are given for `COc1ccc(S(=O)(=O)N(Cc2ccccc2)c2c(C(=O)NO)cnc3c(C)cccc23)cc1` [Example 18, 4-[Benzyl-(4-methoxybenzenesulfonyl)-amino]-8-methyl-quinoline-3-carboxylic acid hydroxyamide]?
A: IC50 [2]: 0.026 µM; IC50 [4]: 0.627 µM

Q: Which IC50 [1] does the source give for `CN(c1c(C(=O)NO)cnc2ccc(I)cc12)S(=O)(=O)c1ccc(Oc2ccncc2)cc1` [Example 32, 4-{Methyl-[4-(pyridin-4-yloxy)-benzenesulfonyl]-amino}-6-iodo-quinoline-3-carboxylic acid hydroxyamide] here?
A: 0.456 µM

Q: What about the IC50 [2] of the same compound?
A: 0.001 µM

Q: What about the IC50 ([3]; read-out: MMP-9 IC50) of the same compound?
A: 0.001 µM

Q: And the IC50 [4]?
A: 0.024 µM

Q: What does the source list for `COc1ccc(S(=O)(=O)N(Cc2ccccc2)c2c(C(=O)NO)cnc3ccc(C(F)(F)F)cc23)cc1` [Example 15, 4-[Benzyl-(4-methoxy-benzenesulfonyl)-amino]-6-trifluoromethyl-quinoline-3-carboxylic acid hydroxyamide]?
A: IC50 [2]: 0.012 µM; IC50 ([3]; read-out: MMP-9 IC50): 0.025 µM; inhibition at 1 µM ([4]; at 1 μM concentration): 7%

Q: For `COc1ccc(S(=O)(=O)N(Cc2cccnc2)c2c(C(=O)NO)cnc3c2c(C)nn3-c2ccccc2)cc1` [Example 67, 4-[(4-Methoxybenzenesulfonyl)pyridin-3-ylmethylamino]-1phenyl-3-methyl-1H-pyrazolo[3,4-b]pyridine-5-carboxylic acid, hydroxyamide], which IC50 [1] is on record?
A: 0.096 µM

Q: For `COc1ccc(S(=O)(=O)N(Cc2ccccc2)c2c(C(=O)NO)cnc3cc(C(F)(F)F)ccc23)cc1` [Example 11, 4-[Benzyl-(4-methoxy-benzenesulfonyl)-amino]-7-trifluoromethyl-quinoline-3-carboxylic acid hydroxyamide], which IC50 [2] is on record?
A: 0.007 µM

Q: And the IC50 ([3]; read-out: MMP-9 IC50)?
A: 0.011 µM

Q: What about the IC50 [4] of the same compound?
A: > 1 µM

Q: Which results are given for `COc1ccc(S(=O)(=O)N(Cc2cccnc2)c2c(C(=O)NO)cnc3c2cnn3-c2ccccc2)cc1` [Example 63, 4-[(4-Methoxybenzenesulfonyl)pyridin-3-ylmethylamino]-1-phenyl-1H-pyrazolo[3,4-b]pyridine-5-carboxylic acid, hydroxyamide]?
A: IC50 [1]: 0.721 µM; IC50 [2]: 0.023 µM; IC50 ([3]; read-out: MMP-9 IC50): 0.0068 µM

Q: Which results are given for `COc1ccc(S(=O)(=O)N(Cc2cccnc2)c2c(C(=O)NO)cnc3onc(C)c23)cc1` [Example 87, 4-[(4-Methoxybenzenesulfonyl)pyridin-3-ylmethylamino]-3-methylisoxazolo[5,4-b]pyridine-5-carboxylic Acid, Hydroxyamide]?
A: IC50 [1]: 0.111 µM; IC50 [2]: 0.01 µM; IC50 ([3]; read-out: MMP-9 IC50): 0.0089 µM; IC50 [4]: 0.147 ± 0.005 µM

Q: What does the source list for `Cc1ccc(S(=O)(=O)N(Cc2cccnc2)c2c(C(=O)NO)cnc3cc(C(F)(F)F)ccc23)cc1` [Example 44, 4-[Pyridin-3-ylmethyl-(toluene-4-sulfonyl)-amino]-7-trifluoromethyl-quinoline-3-carboxylic acid hydroxyamide]?
A: inhibition at 1 µM [1]: 65%; inhibition at 1 µM [2]: 73%; inhibition at 1 µM [3]: 59%; inhibition at 1 µM ([4]; at 1 μM concentration): 5%

Q: Which IC50 [1] does the source give for `C=Cc1cccc2c(N(CC)S(=O)(=O)c3ccc(OC)cc3)c(C(=O)NO)cnc12` [Example 29, 4-[Ethyl-(4-methoxy-benzenesulfonyl)-amino]-8-vinyl-quinoline-3-carboxylic acid hydroxyamide] here?
A: 0.2 µM

Q: And the IC50 [2]?
A: 0.004 µM

Q: And the IC50 ([3]; read-out: MMP-9 IC50)?
A: 0.005 µM

Q: How did the IC50 [1] turn out when `COc1ccc(S(=O)(=O)N(Cc2cccnc2)c2c(C(=O)NO)cnc3c2cnn3-c2ccccc2)cc1` [Example 64, 4-[(4-Methoxybenzenesulfonyl)pyridin-3-ylmethylamino]-1-phenyl-1H-pyrazolo[3,4-b]pyridine-5-carboxylic acid, hydroxyamide, hydrochloride] was run?
A: 0.913 µM

Q: What about the IC50 [2] of the same compound?
A: 0.019 µM

Q: What about the IC50 ([3]; read-out: MMP-9 IC50) of the same compound?
A: 0.0055 µM

Q: `COc1ccc(S(=O)(=O)N(Cc2cccnc2)c2c(C(=O)NO)cnc3snc(C)c23)cc1` [Example 86, 4-[(4-Methoxybenzenesulfonyl)pyridin-3-ylmethylamino]-3-methylisothiazolo[5,4-b]pyridine-5-carboxylic Acid, Hydroxyamide] was tested. Which IC50 [1] did it give?
A: 0.131 µM

Q: What about the IC50 ([3]; read-out: MMP-9 IC50) of the same compound?
A: 0.0069 µM

Q: How did the IC50 [1] turn out when `COc1ccc(S(=O)(=O)N(Cc2cccnc2)c2c(C(=O)NO)cnc3c(-c4ccccc4)cccc23)cc1` [Example 40, 4-[(4-Methoxy-benzenesulfonyl)-pyridin-3-ylmethyl-amino]-8-phenyl-quinoline-3-carboxylic acid hydroxyamide] was run?
A: 0.151 µM

Q: What about the IC50 [2] of the same compound?
A: 0.004 µM

Q: What about the IC50 ([3]; read-out: MMP-9 IC50) of the same compound?
A: 0.003 µM

Q: And the IC50 [4]?
A: 0.12 µM

Q: For `COc1ccc(S(=O)(=O)N(Cc2cccnc2)c2c(C(=O)NO)cnc3c(Cc4ccccc4)cccc23)cc1` [Example 38, 4-[(4-methoxy-benzenesulfonyl)-pyridin-3-ylmethylamino]-8-Benzyl-quinoline-3-carboxylic acid hydroxyamide], which IC50 [1] is on record?
A: 0.1 µM

Q: And the IC50 [2]?
A: 0.003 µM

Q: What about the IC50 ([3]; read-out: MMP-9 IC50) of the same compound?
A: 0.004 µM

Q: What about the IC50 [4] of the same compound?
A: 0.336 µM

Q: Which results are given for `COc1ccc(S(=O)(=O)N(Cc2ccccc2)c2c(C(=O)NO)cnc3ccc(Br)cc23)cc1` [Example 13, 4-[Benzyl-(4-methoxy-benzenesulfonyl)-amino]-6-bromo-quinoline-3-carboxylic acid hydroxyamide]?
A: IC50 [1]: 0.082 µM; IC50 [2]: 0.009 µM; IC50 ([3]; read-out: MMP-9 IC50): 0.015 µM; inhibition at 1 µM ([4]; at 1 μM concentration): 3%

Q: With `COc1ccc(S(=O)(=O)N(Cc2ccccc2)c2c(C(=O)NO)cnc3cc(Br)ccc23)cc1` [Example 14, 4-[Benzyl-(4-methoxy-benzenesulfonyl)-amino]-7-bromo-quinoline-3-carboxylic acid hydroxyamide] as the compound, how does the IC50 [2] read?
A: 0.006 µM

Q: What about the IC50 ([3]; read-out: MMP-9 IC50) of the same compound?
A: 0.008 µM

Q: What about the inhibition at 1 µM ([4]; at 1 μM concentration) of the same compound?
A: 24%

Q: For `CCN(c1c(C(=O)NO)cnc2ccc(C#Cc3ccccc3)cc12)S(=O)(=O)c1ccc(OC)cc1` [Example 34, 4-[Ethyl-(4-methoxy-benzenesulfonyl)-amino]-6-phenylethynyl-quinoline-3-carboxylic acid hydroxyamide], which IC50 [1] is on record?
A: 0.301 µM

Q: And the IC50 [2]?
A: 0.012 µM

Q: And the IC50 ([3]; read-out: MMP-9 IC50)?
A: 0.009 µM

Q: What about the IC50 [4] of the same compound?
A: 0.02 µM

Q: Which results are given for `COc1ccc(S(=O)(=O)N(Cc2ccccc2)c2c(C(=O)NO)cnc3c(C(C)C)cccc23)cc1` [Example 20, 4-[Benzyl-(4-methoxybenzenesulfonyl)-amino]-8-(1-methylethyl)-quinoline-3-carboxylic acid hydroxyamide]?
A: IC50 [1]: 0.344 µM; IC50 [2]: 0.009 µM; IC50 ([3]; read-out: MMP-9 IC50): 0.006 µM; IC50 [4]: 0.589 µM

Q: How did the IC50 [1] turn out when `O=C(NO)c1cnc2cc(C(F)(F)F)ccc2c1N(Cc1cccnc1)S(=O)(=O)c1ccc(-c2ccccc2)cc1` [Example 42, 4-[(Biphenyl-4-sulfonyl)-pyridin-3-ylmethyl-amino]-7-trifluoromethyl-quinoline-3-carboxylic acid hydroxyamide] was run?
A: 5.2 µM

Q: What about the IC50 ([3]; read-out: MMP-9 IC50) of the same compound?
A: 0.874 µM

Q: For `COc1ccc(S(=O)(=O)N(C)c2c(C(=O)NO)cnc3c(Br)cccc23)cc1` [Example 31, 4-[Methyl-(4-methoxy-benzenesulfonyl)-amino]-8-bromo-quinoline-3-carboxylic acid hydroxyamide], which IC50 [1] is on record?
A: 0.225 µM

Q: What about the IC50 [2] of the same compound?
A: 0.002 µM

Q: And the IC50 [4]?
A: 0.08 µM

Q: Which IC50 [2] does the source give for `CCc1cccc2c(N(Cc3ccccc3)S(=O)(=O)c3ccc(OC)cc3)c(C(=O)NO)cnc12` [Example 19, 4-[Benzyl-(4-methoxybenzenesulfonyl)-amino]-8-ethyl-quinoline-3-carboxylic acid hydroxyamide] here?
A: 0.004 µM

Q: What about the IC50 ([3]; read-out: MMP-9 IC50) of the same compound?
A: 0.002 µM

Q: What about the IC50 [4] of the same compound?
A: 0.314 µM

Q: Which IC50 [2] does the source give for `COc1ccc(S(=O)(=O)N(Cc2cccnc2)c2c(C(=O)NO)cnc3c(I)cccc23)cc1` [Example 39, 4-[(4-Methoxy-benzenesulfonyl)-pyridin-3-ylmethyl-amino]-8-iodo-quinoline-3-carboxylic acid hydroxyamide] here?
A: 0.002 µM

Q: And the IC50 ([3]; read-out: MMP-9 IC50)?
A: 0.002 µM

Q: What about the IC50 [4] of the same compound?
A: 0.053 µM
